Results taken from US20180312493A1, “Antibiotic Compounds, Pharmaceutical Formulations Thereof And Methods And Uses Therefor” (Simon Fraser University, priority 2015, published 2018).
≈ marks a conversion by molar mass, not a printed value.

Tests used:
[1] = test system: S. aureus (ATCC29213); assay: In vitro susceptibility, broth microdilution (MIC); type: cell-based; details: Staphylococcus aureus; S. aureus ATCC29213; 18-24 h, 37 C; read-out: Antimicrobial activity (MIC) S. aureus ATCC29213
Description: Epidemic methicillin resistant S. aureus (MRSA) strain sequenced at the Sanger Centre (MRSA252, NRS71) was obtained from NARSA (Network on Antimicrobial Resistance in S. aureus). Methicillin sensitive S. aureus (ATCC 29213 and 25923), methicillin resistant S. aureus (ATCC BAA-1762), and Salmonella typhimurium (ATCC BAA-185) were obtained from ATCC, The Global Bioresource Center. Acinetobacter baumannii (ATCC 19606 and ATCC 17978), Klebsiella pneumonia (C238), vancomycin resistant Enterococci #2 (2010A) (VRE#2), MRSA (USA400, MW2) and Pseudomonas aeruginosa (PA0-1) were obtained from the laboratory of Dr B. B. Finlay at the University of British Columbia (Vancouver, Canada).
The antimicrobial activities of PK inhibitor candidates were determined using the 96-well microtiter standard 2-fold serial broth microdilution method as described by CLSI (formerly NCCLS) with the various gram-positive and gram-negative bacteria species mentioned above. Bacteria from a single colony were grown, overnight in either BHI Broth (VRE), mueller hinton broth (S. aureus 29213; MRSA USA400, A. baumannii 19606, MRSA BAA-1762) or L-broth (P. aeruginosa, S. typhimurium, K. pneumonia and A. baumannii 17978). […] Culture plates were incubated for 18-24 h at 37° C., and optical density at 600 nm (OD600) was measured using a Benchmark Plus™ microplate spectrophotometer (Bio-Rad™). The absorbance control values for the series containing CAMHB and inhibitor were subtracted as background from the corresponding infected wells. Minimal inhibitory concentration (MIC) was defined as the lowest concentration of test compound leading to complete inhibition of cell growth in relation to compound-free control wells as determined by optical density. Vancomycin, methicillin and ciprofloxicin were used as reference compounds. All assays were run in triplicate or duplicate. Experiments were replicated at least twice to verify reproducibility using the above conditions.

[2] = biological target: T1, MRSA Pyk (Staphylococcus aureus, UniProt Q6GG09); assay: MRSA pyruvate kinase (PK) activity, continuous LDH-coupled assay; type: biochemical, methicillin resistant S. aureus (MRSA252)
T1 construct: made in house; host or cells: E. coli BL-21 (DE3)
Description: Genomic DNA of MRSA strain Sanger 252 extracted using DNeasy Tissue Kit™ (Qiagen™) was used as a template to generate the His-tagged MRSA PK. Human cDNA from MCF-7 breast cancer cell line (courtesy of Dr. J Wong, BC Cancer Research Center (Vancouver, Canada)) was used as a template to generate the full-length human M2 PK enzyme. The following primer sets were used creating appropriate restriction sites (NdeI and XhoI sites underlined): For cloning of MRSA PK: M27F 5′-[…]-3′ and M27R 5′-[…]-3′, for cloning of human M2 PK isoform: hM2F 5′-[…]-3′ and hM2R 5′-[…]-3′. The resulting PCR fragments for each construct were cloned into the NdeI and XhoI unique sites of the bacterial expression vector pET-28a (+) (Novagen™). […] The sequence and the correct reading frame of all constructs were verified by sequencing. Human M1, R and L PK constructs in pET-28-a(+) vectors (courtesy of Dr. L. Cantley, Harvard Medical, School (Boston, USA)) were used to generate relevant recombinant His-tagged human PK isoforms.
MRSA and human constructs in pET-28a(+) were used to express relevant recombinant PK proteins in E. coli BL-21 (DE3). The proteins were expressed and purified using Ni-NTA agarose (Qiagen™) according to the manufacturer's protocol. Briefly, cells were grown to an absorbance of 0.4-0.5 at 600 nm in 2×YT medium, then induced with 0.1 mM IPTG for 3 h at 20° C. Cells were lysed by sonication on ice (3×10-s bursts with a 30-s recovery between bursts) in lysis buffer (0.2 mg/ml lysozyme, 50 mM Tris pH 7.5, 10 mM MgCl2, 200 mM NaCl, 100 mM KCl, 10% glycerol, 10 mM imidazole, 0.5% NP-40 and 1 mM DTT containing Complete™ protease inhibitor). Cell lysates were cleared by centrifugation (18,000×g in a Beckman™ JA-20 rotor) for 20 min at 4° C. and PK isoforms were purified by batch binding to Ni-NTA resin. The resins were then packed in columns (1×2 cm) and washed with 400 column volumes lysis buffer containing 30 mM imidazole. His-tagged PK isoforms were eluted with the same buffer containing 300 mM imidazole. The proteins were dialyzed overnight at 4° C. against 2000 volumes of ice-cold 30 mM Tris pH 7.5, 25 mM KCl, 5 mM MgCl2, 10% glycerol and 1 mM DTT to remove imidazole. All purification steps were done at 4° C.; enzymes were flash-frozen and stored at −70° C. Enzymatic activity of frozen protein preparations was stable for at least 10 months and up to 5 freeze/thaw cycles. Purity and physical integrity of proteins were assessed using SDS-polyacrylamide gel electrophoresis (SDS-PAGE) followed by coomassie blue staining. Protein concentration was estimated by Bradford assay (Bio-Rad Protein Assay™) using bovine serum albumin as a standard.
Candidate MRSA PK inhibitors were assayed for their ability to inhibit enzymatic activities of MRSA and human PKs. PK activity was determined using a continuous assay coupled to lactate dehydrogenase (LDH) in which the change in absorbance at 340 nm owing to oxidation of NADH was measured using a Benchmark Plus™ microplate spectrophotometer (Bio-Rad Laboratories, Hercules, Calif.). […] Reactions were initiated by the addition of 15 nM of one of the PK enzymes. PK activity proportional to the rate of change at 340 nm was expressed as specific activity (μmol/min/mg), which is defined as the amount of PK that catalyzes the formation of one micromole of either product per minute. Inhibitors were dissolved in DMSO with the final concentration of the solvent never exceeding 1% of the assay volume. IC50 values were calculated by curve fitting on a four-parameter dose-response model with variable slope using Graphpad Prism 5.0™ (GraphPad™ Software Inc., La Jolla, Calif.). In all studies, less than 10% of total PEP was exhausted during the reaction. Reactions were performed at 30° C. for up to 5 min. All values determined represent at least two measurements, in triplicate (Tables 1-6) or duplicate unless mentioned otherwise. […]

MIC [1] [µg/mL]	Compound	IC50 [2] [nM]
> 64	O=C(Nc1ccc(Cl)cc1)Nc1nc2cc([N+](=O)[O-])ccc2s1 [Compound 167, 1-(4-chlorophenyl)-3-(5-nitrobenzo[d]thiazol-2-yl)urea]	–
> 64	CCOC(=O)c1ccc2sc(NC(=O)Nc3ccc(Cl)cc3)nc2c1 [Compound 171, ethyl 2-(3-(4-chlorophenyl)ureido)benzo[d]thiazole-5-carboxylate]	–
> 64	O=C(Nc1ccc(Cl)cc1)Nc1nc2cc(Cl)ccc2o1 [Compound 177, 1-(5-chlorobenzo[d]oxazol-2-yl)-3-(4-chlorophenyl)urea]	–
> 64	O=C(Nc1nc2cc(Cl)ccc2o1)NC1CCCCC1 [Compound 178, 1-(5-chlorobenzo[d]oxazol-2-yl)-3-cyclohexylurea]	–
> 64	O=C(Nc1ccc(Cl)cc1)Nc1nc2cc(F)ccc2o1 [Compound 179, 1-(4-chlorophenyl)-3-(5-fluorobenzo[d]oxazol-2-yl)urea]	–
> 64	O=C(Nc1nc2cc(F)ccc2o1)NC1CCCCC1 [Compound 180, 1-cyclohexyl-3-(5-fluorobenzo[d]oxazol-2-yl)urea]	–
> 64	O=C(O)C1CNCCN1C(=O)c1c(-c2cc3cc(Cl)ccc3[nH]2)[nH]c2cc(Br)ccc12 (centres unmarked) [Compound 225, 1-(6-bromo-5′-chloro-1H,1′H-[2,2′-biindole]-3-carbonyl)piperazine-2-carboxylic Acid]	–
> 64	COC(=O)[C@@H]1CN(CCNC(=O)c2c(-c3cc4cc(Cl)ccc4[nH]3)[nH]c3cc(Br)ccc23)CCN1C(=O)OCc1ccccc1 [Compound 226, 1-benzyl 2-methyl (S)-4-(2-(6-bromo-5′-chloro-1H,1′H-[2,2′-biindole]-3-carboxamido)ethyl)piperazine-1,2-dicarboxylate]	–

The next lines start with the molecule.

Compound	MIC [1] [µg/mL]	IC50 [2] [nM]
ON=C(c1c(/C=C/c2ccc(Cl)cc2)[nH]c2cc(Br)ccc12)C(F)(F)F (racemic) [Compound 19, 1-(6-Bromo-2-(4-chlorostyryl)-1H-indol-3-yl)-2,2,2-trifluoroethanone Oxime]	0.5 (≈ 1.13 µM)	100 to 1000
OC(c1c(CCc2cc(Cl)cc(Cl)c2)[nH]c2cc(Br)ccc12)(C(F)(F)F)C(F)(F)F [Compound 15, 2-(6-Bromo-2-(3,5-dichlorophenethyl)-1H-indol-3-yl)-1,1,1,3,3,3-hexafluoropropan-2-ol]	1 (≈ 1.87 µM)	–
CNC(=O)c1c(/C=C/c2ccc(Cl)cc2)[nH]c2cc(Br)ccc12 [Compound 20, (E)-6-Bromo-2-(4-chlorostyryl)-N-methyl-1H-indole-3-carboxamide]	64 (≈ 164 µM)	–
O=C(NCCN1CCOCC1)c1c(/C=C/c2ccc(Cl)cc2)[nH]c2cc(Br)ccc12 [Compound 29, (E)-6-Bromo-2-(4-chlorostyryl)-N-(2-morpholinoethyl)-1H-indole-3-carboxamide]	–	> 1000
O=C(NCc1cccnc1)c1c(/C=C/c2ccc(Cl)nc2)[nH]c2cc(Br)ccc12 [Compound 37, (E)-6-Bromo-2-(2-(6-chloropyridin-3-yl)vinyl)-N-(pyridin-3-ylmethyl)-1 H-indole-3-carboxamide]	–	100 to 1000
O=C(NCCN1CCN(C(=O)COCC(=O)N2CCN(CCNC(=O)c3c(/C=C/c4ccc(Cl)cc4)[nH]c4cc(Br)ccc34)CC2)CC1)c1c(/C=C/c2ccc(Cl)cc2)[nH]c2cc(Br)ccc12 [Compound 56, (E)-N,N′-((4,4′-(2,2′-oxybis(acetyl))bis(piperazine-4,1-diyl))bis(ethane-2,1-diyl))bis(6-bromo-2-((E)-4-chlorostyryl)-1H-indole-3-carboxamide)]	> 64	–
COc1ccc(CCc2[nH]c3cc(Br)ccc3c2CCO)nc1 [Compound 71, 2-(6-Bromo-2-(2-(5-methoxypyridin-2-yl)ethyl)-1H-indol-3-yl)ethanol]	–	> 1000
CN(C)CCNC(=O)c1c(NCc2ccc(Cl)cc2)[nH]c2cc(Br)ccc12 [Compound 83, 6-bromo-2-(4-chlorobenzylamino)-N-(2-(dimethylamino)ethyl)-1H-indole-3-carboxamide]	–	> 1000
CC(=O)OCC(=O)Nc1c(CCc2ccc(Cl)cc2)[nH]c2cc(Br)ccc12 [Compound 97, 2-(6-Bromo-2-(4-chlorophenethyl)-1H-indol-3-ylamino)-2-oxoethyl Acetate]	–	> 1000
NC(=O)N1CCN(CCNC(=O)c2c(-c3cc4cc(Cl)ccc4[nH]3)[nH]c3cc(Br)ccc23)CC1 [Compound 132, 6-bromo-N-(2-(4-carbamoylpiperazin-1-yl)ethyl)-5′-chloro-1H,1′H-2,2′-biindole-3-carboxamide]	> 64	–
O=C(NCCCO)c1c(-c2cc3cc(Cl)ccc3[nH]2)[nH]c2cc(Br)ccc12 [Compound 133, 6-Bromo-5′-chloro-N-(3-hydroxypropyl)-1H,1′H-[2,2′-biindole]-3-carboxamide]	–	< 100
CS(=O)(=O)NC(=O)CNC(=O)c1c(-c2cc3cc(Cl)ccc3[nH]2)[nH]c2cc(Br)ccc12 [Compound 151, 6-bromo-5′-chloro-N-(2-(methylsulfonamido)-2-oxoethyl)-1H,1′H-[2,2′-biindole]-3-carboxamide]	> 64	–
O=C(Nc1ccc(Cl)cc1)Nc1nc2ccccc2s1 [Compound 162, 1-(benzo[d]thiazol-2-yl)-3-(4-chlorophenyl)urea]	> 64	–
O=C(Nc1ccccn1)Nc1nc2cc(Br)ccc2s1 [Compound 163, 1-(5-bromobenzo[d]thiazol-2-yl)-3-(pyridin-2-yl)urea]	> 64	–
O=C(Nc1ccc(Cl)cc1)Nc1nc2ccccc2o1 [Compound 164, 1-(benzo[d]oxazol-2-yl)-3-(4-chlorophenyl)urea]	> 64	–
COc1ccc2sc(NC(=O)Nc3ccc(Cl)cc3)nc2c1 [Compound 165, 1-(4-chlorophenyl)-3-(5-methoxybenzo[d]thiazol-2-yl)urea]	> 64	–
COC(=O)[C@@H]1CN(CCNC(=O)c2c(-c3cc4cc(Cl)ccc4[nH]3)[nH]c3cc(Br)ccc23)CCN1 [Compound 227, Methyl (S)-4-(2-(6-bromo-5′-chloro-1H,1′H-[2,2′-biindole]-3-carboxamido)ethyl)piperazine-2-carboxylate]	> 64	–
